Assay results taken from patent US9199946B2, “Pyrimidinone carboxamide inhibitors of endothelial lipase” (BRISTOL-MYERS SQUIBB COMPANY, priority 2012, dated 2015).
Where two headings read alike, the source gives them in different places.

Target: T1, Endothelial lipase (EL) (Homo sapiens, UniProt Q9Y5X9)
T1 construct: HT-1080 cells, which were transformed by RAGE technology (Athersys) to overexpress endogenous EL; endogenous in cells; conditioned medium used as the enzyme source
T1 sequence (Q9Y5X9 21-500): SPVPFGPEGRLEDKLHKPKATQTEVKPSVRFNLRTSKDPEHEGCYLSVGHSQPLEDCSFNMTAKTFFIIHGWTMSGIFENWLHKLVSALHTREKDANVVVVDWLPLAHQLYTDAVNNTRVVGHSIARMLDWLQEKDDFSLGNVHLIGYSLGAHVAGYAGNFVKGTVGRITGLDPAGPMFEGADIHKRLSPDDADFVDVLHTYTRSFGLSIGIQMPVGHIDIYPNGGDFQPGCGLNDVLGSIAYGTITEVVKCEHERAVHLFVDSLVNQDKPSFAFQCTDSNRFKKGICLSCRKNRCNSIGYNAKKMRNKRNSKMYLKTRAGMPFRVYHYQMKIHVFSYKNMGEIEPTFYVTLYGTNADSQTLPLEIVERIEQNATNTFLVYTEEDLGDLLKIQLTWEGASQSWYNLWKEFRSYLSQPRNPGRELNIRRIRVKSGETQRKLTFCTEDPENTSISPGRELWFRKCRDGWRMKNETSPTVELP
Assay: Endothelial lipase (EL) enzymatic assay with fluorescent substrate A10070 in DMPG vesicles
Assay type: biochemical
How it was run: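 The enzyme source was conditioned medium from HT-1080 cells engineered to overexpress endogenous EL. It was preincubated with compound for 20 min at 37 °C in 50 mM HEPES pH 8.0, 50 mM NaCl, 1 mM CaCl2. Reactions started with DMPG vesicles carrying FRET substrate A10070 (mole fraction 0.05). The rate was taken from the linear slope of fluorescence (ex 488/em 530 nm) over 10 min.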

[1] = conditioned media from HT-1080 cells overexpressing endogenous EL, 20 min preincubation at 37° C., read-out: EL IC50
[2] = range observed in the EL assay, read-out: EL IC50 values

| SMILES | IC50 [1] | IC50 [2] |
| --- | --- | --- |
| Nc1c(C(=O)NC2CCOc3ccccc32)[nH]c(=O)[nH]c1=O (centres unmarked) [Example 32, 5-amino-N-(chroman-4-yl)-2,6-dioxo-1,2,3,6-tetrahydropyrimidine-4-carboxamide] | 3.74 µM | ≤ 10 µM |
| O=C(N[C@@H]1CCCc2c1cccc2C(F)(F)F)c1[nH]c(=O)[nH]c(=O)c1O [Example 254, (R)-5-hydroxy-2,6-dioxo-N-(5-(trifluoromethyl)-1,2,3,4-tetrahydronaphthalen-1-yl)-1,2,3,6-tetrahydropyrimidine-4-carboxamide] |  | ≤ 10 µM |
| CCn1c(=O)c(O)c(C(=O)N[C@H]2CC[C@@H](c3ccccc3)CC2)n(Cc2ccccc2)c1=O [Example 240, 3-Benzyl-1-ethyl-5-hydroxy-2,6-dioxo-N-(cis-4-phenylcyclohexyl)-1,2,3,6-tetrahydropyrimidine-4-carboxamide] | 0.024 µM | ≤ 10 µM |
| Nc1c(C(=O)N[C@@H]2CC[C@@H](c3ccccc3)C2)[nH]c(=O)[nH]c1=O [Example 77, 5-amino-2,6-dioxo-N-((1R,3R)-3-phenylcyclopentyl)-1,2,3,6-tetrahydropyrimidine-4-carboxamide] |  | ≤ 10 µM |
| Cc1ccc(-c2ccc([C@@H]3CC[C@H](NC(=O)c4[nH]c(=O)[nH]c(=O)c4N)C3)cc2)cc1 [Example 169, 5-amino-N-((1S,3R)-3-(4′-methylbiphenyl-4-yl)cyclopentyl)-2,6-dioxo-1,2,3,6-tetrahydropyrimidine-4-carboxamide] |  | ≤ 10 µM |
| O=C(NC1CCCc2c(-c3ccccc3)cccc21)c1[nH]c(=O)[nH]c(=O)c1O (centres unmarked) [Example 285, 5-hydroxy-2,6-dioxo-N-(5-phenyl-1,2,3,4-tetrahydronaphthalen-1-yl)-1,2,3,6-tetrahydropyrimidine-4-carboxamide] |  | ≤ 10 µM |
| Nc1c(C(=O)NC2CCC(c3ccc(OCc4ccccc4)cc3)C2)[nH]c(=O)[nH]c1=O (centres unmarked) [Example 106, 5-amino-N-(3-(4-(benzyloxy)phenyl)cyclopentyl)-2,6-dioxo-1,2,3,6-tetrahydropyrimidine-4-carboxamide] |  | ≤ 10 µM |
| CS(=O)(=O)N1CCC(NC(=O)c2[nH]c(=O)[nH]c(=O)c2N)c2ccccc21 (centres unmarked) [Example 24, 5-amino-N-(1-(methylsulfonyl)-1,2,3,4-tetrahydroquinolin-4-yl)-2,6-dioxo-1,2,3,6-tetrahydropyrimidine-4-carboxamide] | 0.568 µM | ≤ 10 µM |
| Nc1c(C(=O)N[C@@H]2CCc3c(Cl)cc(Cl)cc32)[nH]c(=O)[nH]c1=O [Example 5, (R)-5-amino-N-(4,6-dichloro-2,3-dihydro-1H-inden-1-yl)-2,6-dioxo-1,2,3,6-tetrahydropyrimidine-4-carboxamide] |  | ≤ 10 µM |
| Nc1c(C(=O)N[C@H]2CC[C@@H](c3ccc(-c4ccccc4)cc3)C2)[nH]c(=O)[nH]c1=O [Example 167, 5-amino-N-((1S,3R)-3-(biphenyl-4-yl)cyclopentyl)-2,6-dioxo-1,2,3,6-tetrahydropyrimidine-4-carboxamide] |  | ≤ 10 µM |
| O=C(N[C@H]1CC[C@@H](c2ccccc2)CC1)c1[nH]c(=O)[nH]c(=O)c1NCc1ccc(F)cc1 [Example 205, 5-(4-Fluorobenzylamino)-2,6-dioxo-N-(cis-4-phenylcyclohexyl)-1,2,3,6-tetrahydropyrimidine-4-carboxamide] |  | ≤ 10 µM |
| O=C(N[C@H]1CCCc2ccccc21)c1[nH]c(=O)[nH]c(=O)c1OCCO [Example 299, (S)-5-(2-Hydroxyethoxy)-2,6-dioxo-N-(1,2,3,4-tetrahydronaphthalen-1-yl)-1,2,3,6-tetrahydropyrimidine-4-carboxamide] | 9.56 µM | ≤ 10 µM |
| Nc1c(C(=O)N[C@H]2CCCc3c(OCc4ccccc4F)cccc32)[nH]c(=O)[nH]c1=O [Example 97, (S)-5-amino-N-(5-(2-fluorobenzyloxy)-1,2,3,4-tetrahydronaphthalen-1-yl)-2,6-dioxo-1,2,3,6-tetrahydropyrimidine-4-carboxamide] |  | ≤ 10 µM |
| CCOC(=O)Cn1cc(-c2ccc([C@@H]3CC[C@H](NC(=O)c4[nH]c(=O)[nH]c(=O)c4N)C3)cc2)cn1 [Example 160, ethyl 2-(4-(4-((1R,3S)-3-(5-amino 2,6-dioxo-1,2,3,6-tetrahydropyrimidine-4-carboxamido)cyclopentyl)phenyl) 1H-pyrazol-1-yl)acetate] |  | ≤ 10 µM |
| Nc1c(C(=O)N[C@H]2CC[C@@H](NC(=O)Nc3ccccc3)CC2)[nH]c(=O)[nH]c1=O [Example 118, 5-amino-2,6-dioxo-N-(cis-4-(3-phenylureido)cyclohexyl)-1,2,3,6-tetrahydropyrimidine-4-carboxamide] |  | ≤ 10 µM |
| COc1cccc2c1CCC[C@H]2NC(=O)c1[nH]c(=O)[nH]c(=O)c1O [Example 261, (R)-5-hydroxy-N-(5-methoxy-1,2,3,4-tetrahydronaphthalen-1-yl)-2,6-dioxo-1,2,3,6-tetrahydropyrimidine-4-carboxamide] |  | ≤ 10 µM |
| COc1cccc(N2CC(NC(=O)c3[nH]c(=O)[nH]c(=O)c3N)CC2=O)c1 (centres unmarked) [Example 81, 5-amino-N-(1-(3-methoxyphenyl)-5-oxopyrrolidin-3-yl)-2,6-dioxo-1,2,3,6-tetrahydropyrimidine-4-carboxamide] |  | ≤ 10 µM |
| O=C(N[C@@H]1CCCc2c(OCC(F)(F)F)cccc21)c1[nH]c(=O)[nH]c(=O)c1O [Example 255, (R)-5-hydroxy-2,6-dioxo-N-(5-(2,2,2-trifluoroethoxy)-1,2,3,4-tetrahydronaphthalen-1-yl)-1,2,3,6-tetrahydropyrimidine-4-carboxamide] |  | ≤ 10 µM |
| COc1ccc2c(c1)C(NC(=O)c1[nH]c(=O)[nH]c(=O)c1N)CC2 (single isomer, unassigned) [Example 73, 5-amino-N-(6-methoxy-2,3-dihydro-1H-inden-1-yl)-2,6-dioxo-1,2,3,6-tetrahydropyrimidine-4-carboxamide] | 0.468 µM | ≤ 10 µM |
| Nc1c(C(=O)N[C@@H]2CCCc3c(OCC(F)(F)F)cccc32)[nH]c(=O)[nH]c1=O [Example 36, (R)-5-amino-2,6-dioxo-N-(5-(2,2,2-trifluoroethoxy)-1,2,3,4-tetrahydronaphthalen-1-yl)-1,2,3,6-tetrahydropyrimidine-4-carboxamide] |  | ≤ 10 µM |
| Nc1c(C(=O)N[C@@H]2CCCc3cc(OCc4ccccc4)ccc32)[nH]c(=O)[nH]c1=O [Example 83, (R)-5-amino-N-(6-(benzyloxy)-1,2,3,4-tetrahydronaphthalen-1-yl)-2,6-dioxo-1,2,3,6-tetrahydropyrimidine-4-carboxamide] |  | ≤ 10 µM |
| COc1ccc2c(c1OC)CCC(NC(=O)c1[nH]c(=O)[nH]c(=O)c1N)C2 (centres unmarked) [Example 108, 5-amino-N-(5,6-dimethoxy-1,2,3,4-tetrahydronaphthalen-2-yl)-2,6-dioxo-1,2,3,6-tetrahydropyrimidine-4-carboxamide] |  | ≤ 10 µM |
| Nc1c(C(=O)N[C@H]2CC[C@@H](NC(=O)Cc3ccccc3)CC2)[nH]c(=O)[nH]c1=O [Example 116, 5-amino-2,6-dioxo-N-(cis-4-(2-phenylacetamido)cyclohexyl)-1,2,3,6-tetrahydropyrimidine-4-carboxamide] |  | ≤ 10 µM |
| COc1ccc([C@@H]2CC[C@@H](NC(=O)c3[nH]c(=O)[nH]c(=O)c3N)C2)cn1 [Example 80, 5-amino-N-((1R,3R)-3-(6-methoxypyridin-3-yl)cyclopentyl)-2,6-dioxo-1,2,3,6-tetrahydropyrimidine-4-carboxamide] |  | ≤ 10 µM |
| Nc1c(C(=O)NC2CCC(c3cnn(Cc4ccccc4)c3)C2)[nH]c(=O)[nH]c1=O (centres unmarked) [Example 102, 5-amino-N-(3-(1-benzyl-1H-pyrazol-4-yl)cyclopentyl)-2,6-dioxo-1,2,3,6-tetrahydropyrimidine-4-carboxamide] |  | ≤ 10 µM |
| Nc1c(C(=O)N[C@@H]2CC[C@H](c3ccccc3)c3ccccc32)[nH]c(=O)[nH]c1=O [Example 19, 5-amino-2,6-dioxo-N-((1R,4R)-4-phenyl-1,2,3,4-tetrahydronaphthalen-1-yl)-1,2,3,6-tetrahydropyrimidine-4-carboxamide] |  | ≤ 10 µM |
| CC(C)Oc1ccc(C2CCC(NC(=O)c3[nH]c(=O)[nH]c(=O)c3N)C2)cc1 (centres unmarked) [Example 142, 5-amino-N-(3-(4-isopropoxyphenyl)cyclopentyl)-2,6-dioxo-1,2,3,6-tetrahydropyrimidine-4 carboxamide] | 0.039 µM | ≤ 10 µM |
| Nc1c(C(=O)N[C@H]2CC[C@H](c3ccccc3)c3ccccc32)[nH]c(=O)[nH]c1=O [Example 71, 5-amino-2,6-dioxo-N-((1S,4R)-4-phenyl-1,2,3,4-tetrahydronaphthalen-1-yl)-1,2,3,6-tetrahydropyrimidine-4-carboxamide] |  | ≤ 10 µM |
| Nc1c(C(=O)N[C@@H]2CC[C@@H](C(=O)N[C@H]3CC[C@@H](c4ccccc4)CC3)C2)[nH]c(=O)[nH]c1=O [Example 147, 5-amino-2,6-dioxo-N-((1R,3R)-3-(cis-4-phenylcyclohexylcarbamoyl)cyclopentyl)-1,2,3,6-tetrahydropyrimidine-4-carboxamide] |  | ≤ 10 µM |
